Data taken from patent publication US5547951A, “Pyrido[2,3-b][1,4]benzoxazepin (and thiazepin)-6(5H)-ones and -thiones and their use in the prevention or treatment of HIV-1 infection” (Boehringer Ingelheim Pharamceuticals, Inc., priority 1994, dated 1996).
Values after ≈ are worked out from the molar mass of the structure shown.

Columns and labels:
[1] = molecular target: T1, HIV-1 reverse transcriptase (Human immunodeficiency virus type 1 group M subtype B, UniProt P03367); test: Reverse Transcriptase (RT) Assay: inhibition of RNA-dependent DNA polymerase activity, cell-free, poly r(C)/oligo d(G) template, 3H-dGTP substrate; format: biochemical, Human Immunodeficiency Virus (HIV-1), LAV strain; settings: @ 10 μg/ml; room temperature, 60 minutes
T1 construct: Reverse transcriptase enzyme from the LAV strain; made in house; host or cells: E. coli JM109, DNA clone pBRTprtl+ in expression vector pIBI21 (lac promoter)
Excerpt: Utilizing the Reverse Transcriptase (RT) Assay described below, compounds can be tested for their ability to inhibit the RNA-dependent DNA polymerase activity of HIV RT. Certain specific compounds, described in the Examples which appear below, were so tested. […]
Among the enzymes for which Human Immunodeficiency Virus (HIV-1) encodes is a reverse transcriptase (1), so-named because it transcribes a DNA copy from an RNA template. This activity can be quantitatively measured in a cell-free enzyme assay which has been previously described (2), and is based upon the observation that reverse transcriptase is able to use a synthetic template [poly r(C) primed with oligo d(G)] to transcribe a radio-labelled, acidprecipitable DNA strand utilizing ^3 3H-dGTP as a substrate. […]
a) Preparation of the enzyme
Reverse transcriptase enzyme from the LAV strain of Human Immuno- deficiency Virus (HIV-1) (1) was isolated from the bacterial strain JM109 (3) expressing the DNA clone pBRTprtl+ (2) which is under the control of the lac promotor in the expression vector pIBI21 (4). An overnight culture grown in 2XYT medium (37° C., 225 rpm) (5) supplemented with 100 μg/ml ampicillin for positive selection is inoculated at a 1:40 dilution into M9 medium supplemented with 10μg/ml thiamine, 0.5% casamino acids, and 50 μg/ml ampicillin (5). The culture is incubated (37° C., 225 rpm) until it reaches an 0D540 of 0.3-0.4. At that time the repressor inhibitor IPTG (isopropyl b-D-thiogalactopyranoside) is added to 0.5 mM and incubated for 2 additional hours. Bacteria are pelletted, resuspended in a 50mM Tris, 0.6mM EDTA, 0.375 M NaGl buffer and digested by the addition of lysozyme (1 mg/ml) for 30 minutes on ice. The cells are lysed by the addition to 0.2% NP-40 and brought to 1 M NAGl.
After removal of the insoluble debris by centrifugation, the protein is precipitated by the addition of 3 volumes of saturated aqueous ammonium sulfate. The enzyme is pelleted, resuspended in RT buffer (50 mM Tris pH 7.5, 1 mM EDTA, 5mM DTT, 0.1% NP-40, 0.1M NaCl, and 50% glycerol) and stored at -70° C. for further use. […]
b) Composition of 2X concentrated stock reaction mixture
The 2X concentrated stock reaction mixture is aliquoted and stored at -20° C. The mixture is stable and thawed for use in each assay. This enzyme assay has been adapted to a 96 well microtiter plate system, and has been previously described (6). Tris buffer (50 mM, pH 7.4), vehicle (solvent diluted to match the compound dilution), or compounds in vehicle are dispensed into 96-well microtiter plates (10 μl/well; 3 wells/compound). The HIV RT enzyme is thawed, diluted in 50 mM Tris pH 7.4 so that fifteen μl of diluted enzyme contain 0.001 Unit (one unit is that amount of enzyme to transform 1 micromole of substrate per minute at 25° C.), and 15 μ are dispensed per well. Twenty μl of 0.12-0.5M EDTA are added to the first three wells of the microtiter plate. EDTA thelares the Mg^++ present and prevents reverse transcription. This group serves as background polymerization which is subtracted from all other groups. Twenty-five μl of the 2X reaction mixture are added to all wells and the assay is allowed to incubate at room temperature for 60 minutes. The assay is terminated by precipitating the DNA in each well with 50 μl of 10% trichloracetic acid (TCA) in 1% sodium pyrophosphate. The microtiter plate is incubated for 15 minutes at 4° C. and the precipitate is fixed onto #30 glass fiber paper (Schletcher & Schuell) using a Skatron semi- automatic harvester. The filters are then washed with additional 5% TCA containing 1% sodium pyrophosphate, rinsed with 70% aqueous ethanol, dried, and transferred to scintillation vials (6). Each vial receives 2 mls of scintillation cocktail and is counted in a Beckman beta counter.
Calculations for percent inhibition are as follows [formula] References

[2] = MTT assay for cellular cytotoxicity; format: cell-based; settings: human, H9 cells, five days, read-out: Cytotoxity Assay EC50
Procedure: In order to roughly assess the cytotoxicity of the compounds of formula I, several were tested in the MTT Cellular Cytotoxicity Assay described below. Compounds having a relatively high EC50 are preferred.
MTT ASSAY FOR CELLULAR CYTOTOXICITY
The MTT [3-(4,5-dimethylthiazol-2yl)-2,5 diphenyl tetrazolium bromide) assay is based on cleavage of tetrazolium bromide by metabolically active cells, resulting in a highly quantitative blue color. This assay has been previously described (1) but has been optimized for the purposes of the testing reported herein.
The H9 cell line (2), an established human lymphoma suspension cell line grown in RPMI 1640 supplemented with 10% fetal bovine serum is used as the target cell line in the assay. Cells (100μl) are plated in microtest plate wells at a concentration of 10^5 cells per ml in the presence of varying concentrations of inhibitor. The cells are incubated at 37° C in a humidified CO2 incubator. Five days later, 20 μl of MTT (5 mg/ml in RPMI 1640, sonicated, 0.2 micron filtered, and stored at 4° C.) is added to each well. After 4 hours additional incubation at 37° 60 μl of Triton-X is added to each well and thoroughly mixed to aid the solubiltzation of the crystals. Absolute ethanol (5μ) is added to remove bubbles, and the mixture is incubated for 30 minutes at 60° C. and immediately read on a plate reader (Dynatech) at a wavelength of 570 nm. […]

Row | Structure (SMILES) | inhibition at 10 µg/mL [1] [%] | CC50 at 120 h [2] [µg/mL]
1 | CSCCN1C(=O)c2ccccc2Oc2nc(Cl)ccc21 [Example 1, 2-Chloro-5-(methylthioethyl)pyrido[2,3-b][1,4]benzoxazepin-6(5H)-one] | 99 | 20 (≈ 62.3 µM)
2 | C=CCN1C(=O)c2ccccc2Oc2nc(Cl)ccc21 [Example 2, 5-Allyl-2-chloropyrido[2,3-b][1,4]benzoxazepin-6(5H)-one] | 96 | 
3 | CN1C(=O)c2ccccc2Oc2ncccc21 [Example 3, 5-Methylpyrido[2,3-b][1,4]benzoxzepin-6(5H)-one] | 30 | 
4 | CCC(C)N1C(=O)c2ccccc2Oc2ncccc21 (stereo not shown) [Example 4, 5-Sec-butylpyrido[2,3-b][1,4]benzoxazepin-6(5H) -one] | 50 | 
5 | CCN1C(=O)c2cccc(C)c2Oc2ncccc21 [Example 5, 5-Ethyl-10-methylpyrido[2,3-b][1,4]benzoxazepin-6(5H)-one] | 83 | 
6 | CN1C(=O)c2cc(N)ccc2Oc2ncccc21 [Example 6, 8-Amino-5-methylpyrido[2,3-b][1,4]benzoxazepin-6(5H)-one] | 50 | 
7 | C=C(Cl)CN1C(=O)c2ccccc2Oc2ncccc21 [Example 7, 5-(2-Chloro-2-propen-1-yl)pyrido[2,3-b][1,4]benzoxazepin-6(5H)-one] | 66 | 
8 | C=C(C)CN1C(=O)c2ccccc2Oc2ncccc21 [Example 8, 5-(2-Methyl-2-propen-1-yl)pyrido[2,3-b][1,4]benzoxazepin-6(5H)-one] | 47 | 
9 | CC=CCN1C(=O)c2ccccc2Oc2ncccc21 [Example 9, 5-(2-Buten-1-yl)pyrido[2,3-b][1,4]benzoxazepin-6(5H) -one] | 39 | 
10 | C=CCN1C(=O)c2cccc(C)c2Oc2ncccc21 [Example 10, 5-Allyl-10-methylpyrido[2,3-b][1,4]benzoxazepin-6(5H)-one] | 84 | 
11 | CCN1C(=O)c2ccc(C)cc2Oc2ncccc21 [Example 11, 5-Ethyl-9-methylpyrido[2,3-b][1,4]benzoxazepin-6(5H)-one] | 30 | 
12 | CCC(=O)N1C(=O)c2cc(C)ccc2Oc2ncccc21 [Example 12, 8-Methyl-5-propionylpyrido[2,3-b][1,4]benzoxazepin-6(5H)-one] | 49 | 
